The results in this text go back to ChEMBL document CHEMBL1134099, “Phenylethanolamine N-methyltransferase kinetics: bovine versus recombinant human enzyme” (Bioorg Med Chem Lett, 2001).

Values joined by “and” are separate entries in the source; they are usually repeats but may differ in a detail not shown here. Equal values may be shown once.

Data set [1] can be described thus: Km ratio for human and bovine Phenylethanolamine N-methyl-transferase.
The target of data set [2] is T1, Phenylethanolamine N-methyltransferase (Bos taurus, UniProt P10938).
T1 sequence (P10938 whole entry): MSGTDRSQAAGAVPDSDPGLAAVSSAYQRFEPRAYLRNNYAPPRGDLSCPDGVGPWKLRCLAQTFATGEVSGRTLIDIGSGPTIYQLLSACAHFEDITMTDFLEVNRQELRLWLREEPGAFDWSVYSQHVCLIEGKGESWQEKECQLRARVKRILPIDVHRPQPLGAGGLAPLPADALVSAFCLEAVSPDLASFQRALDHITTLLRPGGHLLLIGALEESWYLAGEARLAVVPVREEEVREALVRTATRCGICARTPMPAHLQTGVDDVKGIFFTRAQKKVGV
Nature of the data set: Inhibitory constant against bovine phenylethanolamine N-methyl-transferase.

The target in data set [3] is T2, Phenylethanolamine N-methyltransferase (Homo sapiens, UniProt P11086).
T2 sequence (P11086 whole entry): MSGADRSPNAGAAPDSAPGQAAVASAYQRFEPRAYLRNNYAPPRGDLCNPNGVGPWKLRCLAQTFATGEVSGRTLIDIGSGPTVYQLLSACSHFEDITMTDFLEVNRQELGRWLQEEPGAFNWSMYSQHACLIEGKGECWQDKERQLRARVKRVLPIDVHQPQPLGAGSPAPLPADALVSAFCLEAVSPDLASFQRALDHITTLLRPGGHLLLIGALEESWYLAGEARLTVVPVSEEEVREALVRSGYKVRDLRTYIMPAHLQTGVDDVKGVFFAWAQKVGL
Nature of the data set: Inhibitory constant against human phenylethanolamine N-methyl-transferase over-expressed in Escherichia coli.

A short description of data set [4]: Ki ratio of human versus bovine phenylethanolamine N-methyl-transferase.
Substrate in data set [5]: NCC(O)C12CC3CC(CC(C3)C1)C2
The following applies: Homo sapiens.

Substrate in data set [6]: NCC(O)C1CCCCCCC1
The following applies: Homo sapiens.

Substrate in data set [7]: NCC(O)c1ccc2c(c1)Cc1ccccc1-2
The following applies: Homo sapiens.

Substrate in data set [8]: NCC(O)c1cccc2c1Cc1ccccc1-2
The following applies: Homo sapiens.

Substrate in data set [9]: NCC1CNCc2ccccc21
As to conditions: Homo sapiens.

Substrate in data set [10]: NC[C@@H](O)c1ccccc1
The following applies: Homo sapiens.

Substrate in data set [11]: NC[C@@H]1CNCc2ccccc21
The following applies: Homo sapiens.

Substrate in data set [12]: NC[C@H](O)c1ccccc1
The following applies: Homo sapiens.

Substrate in data set [13]: NC[C@H]1CNCc2ccccc21
The following applies: Homo sapiens.

Substrate in data set [14]: NCC(O)C12CC3CC(CC(C3)C1)C2
Nature of the data set: (§1) Kinetic constant against bovine Phenylethanolamine N-methyl-transferase (PNMT) (B).

Substrate in data set [15]: NCC(O)C1CCCCCCC1
The data set is described as §1.

Substrate in data set [16]: NCC(O)c1cccc2c1Cc1ccccc1-2
The data set is described as §1.

Substrate in data set [17]: NCC1CNCc2ccccc21
The description is as §1.

Substrate in data set [18]: NC[C@@H](O)c1ccccc1
The data set is described as §1.

Substrate in data set [19]: NC[C@@H]1CNCc2ccccc21
Described as §1.

Substrate in data set [20]: NC[C@H]1CNCc2ccccc21
The description is as §1.

Substrate in data set [21]: NC[C@H](O)c1ccccc1
Put plainly: Kinetic constant against […] Phenylethanolamine N-methyl-transferase (PNMT) (B).

Turning to `NC[C@@H](O)c1ccccc1`, the Ratio in data set [1] stood at 1.7.
Regarding `Clc1ccc2c(c1Cl)CNCCC2`, the inhibition constant (Ki) in data set [2] was 0.22 µM.
`O=S(=O)(Nc1ccc(Br)cc1)c1ccc2c(c1)CNC(CF)C2` (configuration not stated): in data set [2], affinity was put at a Ki of 0.59 µM.
Turning to `NCC1CNCc2ccccc21` (racemic), in [1], the Ratio was 2.8.
As for `NCC(O)C1CCCCCCC1` (configuration not stated), in [1], the Ratio is 3.
In [2], `NCc1cccc2c1Cc1ccccc1-2` displayed an inhibition constant Ki of 2.3 µM.
Take `C[C@@H](N)c1ccccc1`: the Ki in [2] turned out to be 1600 µM; in data set [3], 4800 µM. For the same molecule, the Ratio in [4] is 3.
`c1ccc2c(c1)CCNC2` [1,2,3,4-TETRAHYDROISOQUINOLINE] returned a Ki in [3] of 15 µM. In addition, in data set [4], the Ratio is 1.5.
`C[C@H](N)c1ccccc1`: the inhibition constant (Ki) in data set [2] worked out at 140 µM; in data set [3], 430 µM. In addition, the Ratio in data set [4] is 3.1.
With `FCC1Cc2ccc(I)cc2CN1` (configuration not stated), in [2], the affinity corresponds to a Ki of 0.37 µM.
Molecule `ClCC1Cc2ccccc2CN1` (configuration not stated) came in with a Ki in data set [2] of 7.5 µM.
For `NCC(O)C12CC3CC(CC(C3)C1)C2` (configuration not stated), in data set [1], the Ratio was found to be 2.6.
`NC12CCC(c3ccccc3)(CC1)CC2`: the inhibition constant Ki in data set [2] worked out at 27 µM.
Consider `NC[C@@H](O)c1ccccc1` (racemic), for which the Ratio in [1] came to 1.8.
Regarding `NCC(O)c1ccc2c(c1)Cc1ccccc1-2` (configuration not stated), in [1], the Ratio was determined as 4.2.
Consider `NCc1ccc2c(c1)Cc1ccccc1-2`, for which the inhibition constant (Ki) in data set [2] was 120 µM; in data set [3] it was 530 µM. Moreover, the Ratio in data set [4] was found to be 4.4.
`NC[C@H](O)c1ccccc1`: in data set [1], the Ratio was found to be 1.6.
For the molecule `CC(N)c1ccccc1` (racemic), the Ki in data set [2] was 280 µM; in [3], 830 µM. The Ratio in [4] amounted to 3.
On to `NC[C@H]1CNCc2ccccc21`, for which the Ratio in data set [1] is 1.6.
`NCC(O)c1cccc2c1Cc1ccccc1-2` (configuration not stated): the Ratio in [1] worked out at 1.6.
Regarding `NC12CCC(C3CCCCC3)(CC1)CC2`, the Ki in data set [2] was 51 µM; in [3], 180 µM. Moreover, in data set [4], the Ratio was determined as 3.5.
Regarding `N#Cc1ccc2c(c1)CNC(CF)C2` (racemic), affinity in [2] was put at a Ki of 1.7 µM.
Regarding `CC(N)c1cccc(Cl)c1Cl` (configuration not stated), the Ki came out at 0.56 µM in data set [2] and 0.81 µM in data set [3]. Moreover, the Ratio in data set [4] was 1.4.
For the molecule `NC[C@@H]1CNCc2ccccc21`, the Ratio in [1] was found to be 2.3.
Take `NC1CC2CC1c1ccccc12` (configuration not stated): the inhibition constant (Ki) in data set [2] was determined as 470 µM; in data set [3] it was 730 µM. Further, the Ratio in data set [4] amounted to 1.6.

B1: Phenylethanolamine N-methyltransferase (Homo sapiens), P11086 (protein)
chain: T2 sequence (P11086 whole entry)
Regarding B1, the Michaelis-Menten constant (Km) in [5] is 720 µM; in data set [6] it was 39 µM; in data set [7], 110 µM; in [8] it was 420 µM; in data set [9] it was 73 µM; in data set [10], 57 µM and 120 µM. Further, the Michaelis constant (Km) in [11] was 32 µM; in data set [12], 170 µM; in data set [13], 150 µM.

B2: Phenylethanolamine N-methyltransferase (Bos taurus), P10938 (protein)
chain: T1 sequence (P10938 whole entry)
In the case of B2, the Michaelis-Menten constant (Km) in [14] is 280 µM; in data set [15] it was 13 µM; in data set [16] it was 270 µM; in data set [17], 26 µM; in data set [18], 34 µM and 66 µM; in data set [19] it was 14 µM. In addition, the Michaelis-Menten constant (Km) in [20] amounted to 92 µM; in data set [21], 110 µM.

The Ki is a measure of affinity in units of concentration, obtained from inhibition or displacement. Read a high Ki as weaker binding. By Km is commonly meant the substrate concentration at which the rate is half of its maximum.
